From patent publication US8129371B2, “Thienopyrimidine and pyrazolopyrimidine compounds and their use as mTOR kinase and PI3 kinase inhibitors” (Wyeth LLC, priority 2007, dated 2012) come the findings set out here.

One assay deals with T1, Human mTOR (FLAG-TOR) (Homo sapiens, UniProt P42345).
T1 construct: FLAG
Nature of the assay: Human mTOR kinase assay with purified enzyme, DELFIA format. The format is biochemical. A digest of the protocol: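 DELFIA readout: Eu-anti-P(T389)-S6K antibody (40 ng/mL, 1 h) on captured His6-S6K from the stopped reaction. Kinase step used purified FLAG-tagged human mTOR with test compound in HEPES (pH 7.4)/MnCl2/DTT buffer, 2 h at room temperature (linear 1–6 h), terminated by EDTA/EGTA.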

For the next assay, the system named is prostate line LNCap. Nature of the assay: In vitro cell culture growth assay (MTS), LNCap. The assay is classed as cell-based. Particulars: Homo sapiens, LNCaP, 72 h, LNCap cells, three days after drug treatment. A digest of the protocol: (§1)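 Growth is reported as percent of vehicle-treated control grown in the same plate, with viability determined by metabolic conversion of MTS dye and absorbance read at 490 nm. Compounds were applied one day after plating and left for three days.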

In the next assay the test system is breast line MDA468. Nature of the assay: In vitro cell culture growth assay (MTS), MDA468. The assay is classed as cell-based. The settings on record: Homo sapiens, 72 h, MDA468 cells, three days after drug treatment. The essentials:
as §1

In assay [1] the target is T2, PI3K (Homo sapiens, UniProt P48736).
T2 construct: PI3 Kinase γ IC50; other: PI3 Kinase γ; other: PI3 Kinase γ isoform, fluorescence polarization
T2 sequence (P48736 whole entry, canonical isoform): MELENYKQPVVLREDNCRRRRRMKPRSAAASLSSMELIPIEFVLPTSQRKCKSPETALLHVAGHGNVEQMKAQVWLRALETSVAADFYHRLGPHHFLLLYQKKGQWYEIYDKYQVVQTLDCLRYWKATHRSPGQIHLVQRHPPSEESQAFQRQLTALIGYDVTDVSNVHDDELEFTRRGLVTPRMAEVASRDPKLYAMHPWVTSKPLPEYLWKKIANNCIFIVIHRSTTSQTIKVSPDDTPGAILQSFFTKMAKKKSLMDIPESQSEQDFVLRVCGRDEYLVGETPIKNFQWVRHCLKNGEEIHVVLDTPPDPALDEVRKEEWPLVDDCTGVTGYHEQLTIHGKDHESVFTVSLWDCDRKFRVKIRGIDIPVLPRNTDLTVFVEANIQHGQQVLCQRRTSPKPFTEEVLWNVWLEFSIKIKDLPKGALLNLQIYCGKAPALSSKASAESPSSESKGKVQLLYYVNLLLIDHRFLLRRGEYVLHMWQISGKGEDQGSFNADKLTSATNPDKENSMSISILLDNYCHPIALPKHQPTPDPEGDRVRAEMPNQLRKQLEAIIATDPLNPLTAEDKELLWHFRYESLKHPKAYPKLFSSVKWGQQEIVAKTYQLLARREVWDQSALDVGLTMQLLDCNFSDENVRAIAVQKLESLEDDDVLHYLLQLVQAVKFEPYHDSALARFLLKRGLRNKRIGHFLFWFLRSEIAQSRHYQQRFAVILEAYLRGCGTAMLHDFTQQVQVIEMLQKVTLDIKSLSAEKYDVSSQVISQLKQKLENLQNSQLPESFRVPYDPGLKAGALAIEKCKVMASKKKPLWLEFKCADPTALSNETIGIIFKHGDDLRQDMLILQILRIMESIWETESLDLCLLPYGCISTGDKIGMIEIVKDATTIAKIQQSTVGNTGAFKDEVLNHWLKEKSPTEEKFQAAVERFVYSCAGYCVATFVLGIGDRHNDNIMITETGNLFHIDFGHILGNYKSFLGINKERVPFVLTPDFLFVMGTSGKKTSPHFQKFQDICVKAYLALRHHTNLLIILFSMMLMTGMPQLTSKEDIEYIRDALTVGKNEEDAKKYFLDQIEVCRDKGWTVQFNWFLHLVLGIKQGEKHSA
Description: Fluorescence polarization assay for PI3K. The settings on record: read-out: PI3 Kinase γ IC50. The assay is classed as biochemical. The essentials: (§2)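 Fluorescence-polarization competition readout: after 30–60 min of PIP2/ATP turnover in 1% DMSO, a stop mix with GST-GRP (70 nM) and red probe (10 nM) was added.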

In assay [2] the target is T3, PI3K (Homo sapiens, UniProt P42336).
T3 construct: PI3 Kinase α IC50; other: PI3 Kinase α; other: PI3 Kinase α isoform, fluorescence polarization
T3 sequence (P42336 whole entry, canonical isoform): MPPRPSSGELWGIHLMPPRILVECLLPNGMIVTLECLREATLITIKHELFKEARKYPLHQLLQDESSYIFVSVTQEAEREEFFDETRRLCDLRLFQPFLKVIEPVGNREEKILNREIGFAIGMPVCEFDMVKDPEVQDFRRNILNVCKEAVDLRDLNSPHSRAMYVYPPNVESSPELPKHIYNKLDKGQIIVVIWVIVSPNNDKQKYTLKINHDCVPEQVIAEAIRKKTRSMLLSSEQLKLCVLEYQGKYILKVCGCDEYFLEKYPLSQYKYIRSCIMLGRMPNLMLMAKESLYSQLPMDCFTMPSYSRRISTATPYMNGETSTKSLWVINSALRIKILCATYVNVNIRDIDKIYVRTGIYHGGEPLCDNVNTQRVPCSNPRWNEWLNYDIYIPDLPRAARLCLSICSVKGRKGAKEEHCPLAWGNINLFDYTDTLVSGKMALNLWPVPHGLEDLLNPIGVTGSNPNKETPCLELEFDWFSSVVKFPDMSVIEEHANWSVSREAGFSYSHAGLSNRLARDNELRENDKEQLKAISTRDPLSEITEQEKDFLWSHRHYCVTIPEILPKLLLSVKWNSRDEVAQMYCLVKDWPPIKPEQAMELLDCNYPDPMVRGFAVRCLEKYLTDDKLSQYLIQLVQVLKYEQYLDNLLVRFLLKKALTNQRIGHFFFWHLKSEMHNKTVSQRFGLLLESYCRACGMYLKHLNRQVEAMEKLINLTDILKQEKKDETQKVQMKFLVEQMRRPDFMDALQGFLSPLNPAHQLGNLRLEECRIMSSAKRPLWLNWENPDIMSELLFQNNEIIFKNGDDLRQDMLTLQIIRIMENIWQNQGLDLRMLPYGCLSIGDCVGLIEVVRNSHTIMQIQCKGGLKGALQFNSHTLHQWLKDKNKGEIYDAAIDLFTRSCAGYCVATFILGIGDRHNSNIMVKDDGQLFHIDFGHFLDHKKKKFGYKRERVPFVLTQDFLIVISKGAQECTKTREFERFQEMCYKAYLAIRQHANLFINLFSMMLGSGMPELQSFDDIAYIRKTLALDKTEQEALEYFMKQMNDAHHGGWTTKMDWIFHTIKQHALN
Description: Fluorescence polarization assay for PI3K. The assay is classed as biochemical. Particulars: read-out: PI3 Kinase α IC50. A digest of the protocol: as §2

[3] abbreviates: purified human mTOR enzyme, DELFIA format.
Where [4] appears, read: PI3 Kinase γ isoform, fluorescence polarization.
Setting [5] is: PI3 Kinase α isoform, fluorescence polarization.

SMILES strings stand for the structures. Like-named read-outs stand apart in the source and are kept apart here. A value given as a limit tells only on which side of the number the result lay.

A word on the IC50: it is the midpoint of a concentration-inhibition curve. For `CCn1ncc2c(N3CC4CCC(C3)O4)nc(-c3ccc(NC(=O)NC4CC4)cc3)nc21` [Example 43, 1-cyclopropyl-3-{4-[1-ethyl-4-(8-oxa-3-azabicyclo[3.2.1]oct-3-yl)-1H-pyrazolo[3,4-d]pyrimidin-6-yl]phenyl}urea], the IC50 is 0.4 nM at Human mTOR (FLAG-TOR); 52 nM in the assay with prostate line LNCap; 250 nM in the assay with breast line MDA468; over 10000 nM on PI3K [1] (PI3 Kinase γ); 1760 nM on PI3K [2] (PI3 Kinase α).
On to `CCn1ncc2c(N3CC4CCC(C3)O4)nc(-c3ccc(NC(=O)NCCN4CCOCC4)cc3)nc21` [Example 179, 1-{4-[1-ethyl-4-(8-oxa-3-azabicyclo[3.2.1]oct-3-yl)-1H-pyrazolo[3,4-d]pyrimidin-6-yl]phenyl}-3-(2-morpholin-4-ylethyl)urea], for which the IC50 at Human mTOR (FLAG-TOR) was 66.5 nM; with prostate line LNCap it was 1700 nM; with breast line MDA468 it was 5000 nM; at PI3K [1] (PI3 Kinase γ) it was 9980 nM; at PI3K [2] (PI3 Kinase α), 482 nM.
As for `CC(C)OC(=O)N1CCC(n2ncc3c(N4CC5CCC(C4)O5)nc(-c4ccc(N)cc4)nc32)CC1` [Example 65, isopropyl 4-[6-(4-aminophenyl)-4-(8-oxa-3-azabicyclo[3.2.1]oct-3-yl)-1H-pyrazolo[3,4-d]pyrimidin-1-yl]piperidine-1-carboxylate], the IC50 against Human mTOR (FLAG-TOR) was 46 nM; with prostate line LNCap, 1200 nM; with breast line MDA468, 7000 nM; at PI3K [1] (PI3 Kinase γ) it was over 10000 nM; at PI3K [2] (PI3 Kinase α), 4630 nM.
For `COC(=O)Nc1ccc(-c2nc(N3CC4CCC(C3)O4)c3cnn(C4CCC(O)CC4)c3n2)cc1` (stereo not shown) [Example 137, methyl {4-[1-(4-hydroxycyclohexyl)-4-(8-oxa-3-azabicyclo[3.2.1]oct-3-yl)-1H-pyrazolo[3,4-d]pyrimidin-6-yl]phenyl}carbamate], the IC50 was 3.75 nM at Human mTOR (FLAG-TOR); 200 nM in the assay with prostate line LNCap; 1700 nM in the assay with breast line MDA468; over 10000 nM at PI3K [1] (PI3 Kinase γ); 6660 nM on PI3K [2] (PI3 Kinase α).
On to `CCNC(=O)Nc1ccc(-c2nc(N3CC4CCC(C3)O4)c3sc(CN4CCN(S(C)(=O)=O)CC4)cc3n2)cc1` [Example 430, 1-ethyl-3-{4-[6-{[4-(methylsulfonyl)piperazin-1-yl]methyl}-4-(8-oxa-3-azabicyclo[3.2.1]oct-3-yl)thieno[3,2-d]pyrimidin-2-yl]phenyl}urea], for which the IC50 against Human mTOR (FLAG-TOR) (setting [3]) turned out to be 1.29 nM; in the assay on prostate line LNCap, 36 nM; in the assay on breast line MDA468 it was 90 nM; on PI3K [1] (setting [4]), 1630 nM; on PI3K [2] (setting [5]), 113 nM.
For the compound `COCC(COC)n1ncc2c(N3CC4CCC(C3)O4)nc(-c3ccc(NC(=O)Nc4ccc(N5CCNCC5)cc4)cc3)nc21` [Example 335, 1-(4-{1-[2-methoxy-1-(methoxymethyl)ethyl]-4-(8-oxa-3-azabicyclo[3.2.1]oct-3-yl)-1H-pyrazolo[3,4-d]pyrimidin-6-yl}phenyl)-3-(4-piperazin-1-ylphenyl)urea], the IC50 was 2.35 nM at Human mTOR (FLAG-TOR) (setting [3]); 28 nM with prostate line LNCap; 210 nM with breast line MDA468; 4480 nM on PI3K [1] (setting [4]); 273 nM on PI3K [2] (setting [5]).
As for `CCNC(=O)Nc1ccc(-c2nc(N3CC4CCC(C3)O4)c3cnn(C(COC)COC)c3n2)cc1` [Example 320, 1-ethyl-3-(4-{1-[2-methoxy-1-(methoxymethyl)ethyl]-4-(8-oxa-3-azabicyclo[3.2.1]oct-3-yl)-1H-pyrazolo[3,4-d]pyrimidin-6-yl}phenyl)urea], the IC50 against Human mTOR (FLAG-TOR) (setting [3]) is 9.1 nM; in the assay on prostate line LNCap it was 160 nM; with breast line MDA468 it was 590 nM; on PI3K [1] (setting [4]), over 10000 nM; at PI3K [2] (setting [5]), 1950 nM.
Turning to `CC(C)OC(=O)N1CCC(n2ncc3c(N4CC5CCC(C4)O5)nc(-c4ccc(NC(=O)NCCO)cc4)nc32)CC1` [Example 69, isopropyl 4-[6-(4-{[(2-hydroxyethyl)carbamoyl]amino}phenyl)-4-(8-oxa-3-azabicyclo[3.2.1]oct-3-yl)-1H-pyrazolo[3,4-d]pyrimidin-1-yl]piperidine-1-carboxylate], the IC50 came out at 0.17 nM on Human mTOR (FLAG-TOR); 100 nM with prostate line LNCap; 195 nM in the assay with breast line MDA468; 11000 nM on PI3K [1] (PI3 Kinase γ); 1530 nM on PI3K [2] (PI3 Kinase α).
As for `CC(C)(C)OC(=O)N1CC2CN(c3nc(-c4ccc(NC(=O)Nc5ccncc5)cc4)nc4c3cnn4CC(F)(F)F)CC(C1)O2` [Example 340, tert-butyl 7-[6-{4-[(pyridin-4-ylcarbamoyl)amino]phenyl}-1-(2,2,2-trifluoroethyl)-1H-pyrazolo[3,4-d]pyrimidin-4-yl]-9-oxa-3,7-diazabicyclo[3.3.1]nonane-3-carboxylate], the IC50 at Human mTOR (FLAG-TOR) (setting [3]) came to 305 nM; in the assay on prostate line LNCap, 5200 nM; in the assay with breast line MDA468, 5200 nM; on PI3K [1] (setting [4]) it was 5760 nM; on PI3K [2] (setting [5]), 5080 nM.
Regarding `O=C(Nc1ccc(-c2nc(N3CC4CCC(C3)O4)c3cnn(CC(F)(F)F)c3n2)cc1)Nc1ccc(N2CCNCC2)cc1` [Example 317, 1-{4-[4-(8-oxa-3-azabicyclo[3.2.1]oct-3-yl)-1-(2,2,2-trifluoroethyl)-1H-pyrazolo[3,4-d]pyrimidin-6-yl]phenyl}-3-(4-piperazin-1-ylphenyl)urea], the half-inhibitory concentration (IC50) was 0.255 nM on Human mTOR (FLAG-TOR) (setting [3]); under 1 nM in the assay on prostate line LNCap; 1 nM in the assay on breast line MDA468; over 10000 nM at PI3K [1] (setting [4]); 77 nM at PI3K [2] (setting [5]).
As to `CCn1nc(Br)c2c(N3CC4CCC(C3)O4)nc(-c3ccc(NC(=O)NC)cc3)nc21` [Example 397, 1-{4-[3-bromo-1-ethyl-4-(8-oxa-3-azabicyclo[3.2.1]oct-3-yl)-1H-pyrazolo[3,4-d]pyrimidin-6-yl]phenyl}-3-methylurea], the concentration for half-maximal inhibition (IC50) was 3.1 nM on Human mTOR (FLAG-TOR) (setting [3]); 210 nM with prostate line LNCap; 1500 nM in the assay with breast line MDA468; 5630 nM at PI3K [1] (setting [4]); 317 nM at PI3K [2] (setting [5]).
Turning to `COCC(COC)n1ncc2c(N3CC4CCC(C3)O4)nc(-c3ccc(NC(=O)Nc4ccncc4)cc3)nc21` [Example 325, 1-(4-{1-[2-methoxy-1-(methoxymethyl)ethyl]-4-(8-oxa-3-azabicyclo[3.2.1]oct-3-yl)-1H-pyrazolo[3,4-d]pyrimidin-6-yl}phenyl)-3-pyridin-4-ylurea], the half-inhibitory concentration (IC50) is 1.6 nM against Human mTOR (FLAG-TOR) (setting [3]); 2 nM in the assay with prostate line LNCap; 19 nM in the assay with breast line MDA468; 4980 nM at PI3K [1] (setting [4]); 601 nM at PI3K [2] (setting [5]).
Turning to `CC(C)(C)n1ncc2c(N3CC4CCC(C3)O4)nc(-c3ccc(NC(=O)OCCO)cc3)nc21` [Example 98], the IC50 was 0.98 nM against Human mTOR (FLAG-TOR); 90 nM in the assay with prostate line LNCap; 620 nM in the assay with breast line MDA468; over 10000 nM at PI3K [1] (PI3 Kinase γ); 1420 nM on PI3K [2] (PI3 Kinase α).
As for `COC(=O)N1CCC(n2ncc3c(N4CC5CCC(C4)O5)nc(-c4ccc(NC(=O)NCCN)cc4)nc32)CC1` [Example 168, methyl 4-[6-(4-{[(2-aminoethyl)carbamoyl]amino}phenyl)-4-(8-oxa-3-azabicyclo[3.2.1]oct-3-yl)-1H-pyrazolo[3,4-d]pyrimidin-1-yl]piperidine-1-carboxylate], the IC50 was 3.15 nM against Human mTOR (FLAG-TOR); 1500 nM with prostate line LNCap; 9000 nM with breast line MDA468; 3220 nM on PI3K [1] (PI3 Kinase γ); 218 nM on PI3K [2] (PI3 Kinase α).
